# Where a name gives a salt, the structure may show the parent alone.
# Biological target: T1, human M1 receptor (hCHRM1) (Homo sapiens, UniProt P11229)
# T1 construct: expressed in transfected cells; host or cells: CHO-K1
# T1 sequence (P11229 1-460): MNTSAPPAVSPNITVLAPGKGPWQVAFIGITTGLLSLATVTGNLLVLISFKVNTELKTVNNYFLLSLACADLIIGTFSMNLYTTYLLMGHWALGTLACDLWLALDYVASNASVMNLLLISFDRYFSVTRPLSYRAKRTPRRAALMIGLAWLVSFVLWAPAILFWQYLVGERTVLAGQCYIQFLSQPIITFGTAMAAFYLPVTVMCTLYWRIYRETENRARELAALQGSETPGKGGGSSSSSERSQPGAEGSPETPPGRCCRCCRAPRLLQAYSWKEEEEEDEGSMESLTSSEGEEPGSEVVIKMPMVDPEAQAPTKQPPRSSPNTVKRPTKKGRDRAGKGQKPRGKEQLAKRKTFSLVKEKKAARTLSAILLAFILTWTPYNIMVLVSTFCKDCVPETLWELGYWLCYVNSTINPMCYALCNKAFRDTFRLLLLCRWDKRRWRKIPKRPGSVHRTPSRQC
# Assay: Measurement of M1 receptor positive allosteric modulator (M1PAM) activity, calcium fluorescence (FLIPRtetra) in CHO-K1 cells in the presence of acetylcholine at EC20
# Assay type: cell-based
# Details: in the presence of acetylcholine at EC20 (final 0.6 nM), CHO-K1 cells expressing hCHRM1; for EC50: inflection point of M1PAM activity, read-out: IP value; for activity (%) at 10 μM: test compound 10 μM
# How it was run: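 CHO-K1 cells expressing human M1 were loaded with Fluo-4 AM, and compound was added with acetylcholine at EC20 (final 0.6 nM). Calcium fluorescence was read on FLIPRtetra for 1 min. Activity was normalized to 1 μM acetylcholine (100%) and DMSO (0%), and the curve inflection point was reported as IP.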
Compound,EC50,activity (%) at 10 μM,activity (%) at 10 μM (hydrochloride)
"CC(C)n1cc(-c2ccc(CN3Cc4cccc(Oc5c(F)cc(C#N)cc5F)c4C3=O)cn2)cn1 [Example 382, 3,5-difluoro-4-((2-((6-(1-isopropyl-1H-pyrazol-4-yl)pyridin-3-yl)methyl)-3-oxo-2,3-dihydro-1H-isoindol-4-yl)oxy)benzonitrile]",70 nM,99%,
"CCCc1ccc(Oc2nccc3c2C(=O)N(Cc2ccc(C(=O)NC)nc2)C3)c(F)c1 [Example 455, 5-((4-(2-fluoro-4-propylphenoxy)-3-oxo-1,3-dihydro-2H-pyrrolo[3,4-c]pyridin-2-yl)methyl)-N-methylpyridine-2-carboxamide]",60 nM,86%,
"O=C1c2c(ccnc2OCC2CCCO2)CN1Cc1ccc(-n2cc(F)cn2)cc1 (stereo not shown) [Example 234, 2-(4-(4-fluoro-1H-pyrazol-1-yl)benzyl)-4-((tetrahydrofuran-2-yl)methoxy)-1,2-dihydro-3H-pyrrolo[3,4-c]pyridin-3-one]",38 nM,91%,
"Cn1cc(-c2ccc(CN3Cc4ncnc(Oc5ccc(C(F)(F)F)cc5F)c4C3=O)cc2)cn1 [Example 306, 4-(2-fluoro-4-(trifluoromethyl)phenoxy)-6-(4-(1-methyl-1H-pyrazol-4-yl)benzyl)-6,7-dihydro-5H-pyrrolo[3,4-d]pyrimidin-5-one]",8.9 nM,97%,
"Cn1cc(-c2ccc(CN3Cc4cccc(Oc5c(Cl)cccc5C#N)c4C3=O)cc2)cn1 [Example 9, 3-chloro-2-((2-(4-(1-methyl-1H-pyrazol-4-yl)benzyl)-3-oxo-2,3-dihydro-1H-isoindol-4-yl)oxy)benzonitrile]",34 nM,93%,
"Cc1cc(C)c(Oc2nccc3c2C(=O)N(Cc2ccc(-c4cnn(C)c4)cc2)C3)c(F)c1 [Example 415, 4-(2-fluoro-4,6-dimethylphenoxy)-2-(4-(1-methyl-1H-pyrazol-4-yl)benzyl)-1,2-dihydro-3H-pyrrolo[3,4-c]pyridin-3-one]",16 nM,106%,
"Cn1cc(-c2ccc(CN3Cc4ccnc(Oc5ccc(C(F)(F)F)cc5F)c4C3=O)cc2)cn1 [Example 304, 4-(2-fluoro-4-(trifluoromethyl)phenoxy)-2-(4-(1-methyl-1H-pyrazol-4-yl)benzyl)-1,2-dihydro-3H-pyrrolo[3,4-c]pyridin-3-one]",12 nM,93%,
"Cc1cc(-c2ccc(CN3Cc4cccc(Oc5c(F)cccc5C#N)c4C3=O)cc2)ccn1 [Example 72, 3-fluoro-2-((2-(4-(2-methylpyridin-4-yl)benzyl)-3-oxo-2,3-dihydro-1H-isoindol-4-yl)oxy)benzonitrile]",88 nM,102%,
"O=C1c2c(ccnc2O[C@H]2CCCC[C@@H]2O)CN1Cc1ccc(Br)s1 (relative stereo) [Example 400, 2-((5-bromo-2-thienyl)methyl)-4-((trans-2-hydroxycyclohexyl)oxy)-1,2-dihydro-3H-pyrrolo[3,4-c]pyridin-3-one]",56 nM,88%,
"O=C1c2c(ccnc2OCC2CCCO2)CN1Cc1ccc(-c2cnn(CC(F)(F)F)c2)cc1 (stereo not shown) [Example 287, 4-((tetrahydrofuran-2-yl)methoxy)-2-(4-(1-(2,2,2-trifluoroethyl)-1H-pyrazol-4-yl)benzyl)-1,2-dihydro-3H-pyrrolo[3,4-c]pyridin-3-one]",10 nM,99%,
"Cc1cc(-c2ccc(CN3Cc4ccnc(Oc5ccc(C#N)cc5F)c4C3=O)cc2)on1 [Example 373, 3-fluoro-4-((2-(4-(3-methyl-1,2-oxazol-5-yl)benzyl)-3-oxo-2,3-dihydro-1H-pyrrolo[3,4-c]pyridin-4-yl)oxy)benzonitrile]",45 nM,103%,
"Cc1nn(C)cc1-c1ccc(CN2Cc3ccnc(O[C@H]4CCCC[C@@H]4O)c3C2=O)cc1 (relative stereo) [Example 267, 2-(4-(1,3-dimethyl-1H-pyrazol-4-yl)benzyl)-4-((trans-2-hydroxycyclohexyl)oxy)-1,2-dihydro-3H-pyrrolo[3,4-c]pyridin-3-one]",2.1 nM,94%,
"O=C1c2c(ccnc2OCC2CCCO2)CN1Cc1ccc(-c2cn[nH]c2)cc1 (stereo not shown) [Example 286, 2-(4-(1H-pyrazol-4-yl)benzyl)-4-((tetrahydrofuran-2-yl)methoxy)-1,2-dihydro-3H-pyrrolo[3,4-c]pyridin-3-one]",13 nM,99%,
"NC(=O)c1ccc(CN2Cc3ccnc(Oc4ccc(CC(F)(F)F)cc4F)c3C2=O)cc1 [Example 458, 4-((4-(2-fluoro-4-(2,2,2-trifluoroethyl)phenoxy)-3-oxo-1,3-dihydro-2H-pyrrolo[3,4-c]pyridin-2-yl)methyl)benzamide]",12 nM,93%,
"Cn1ccc(-c2ccc(CN3Cc4ccnc(Oc5ccc(C#N)cc5F)c4C3=O)cc2)n1 [Example 374, 3-fluoro-4-((2-(4-(1-methyl-1H-pyrazol-3-yl)benzyl)-3-oxo-2,3-dihydro-1H-pyrrolo[3,4-c]pyridin-4-yl)oxy)benzonitrile]",16 nM,103%,
"Cc1cc(F)c(Oc2nccc3c2C(=O)N(Cc2ccc(-n4cnc(C)c4)cc2)C3)c(F)c1 [Example 428, 4-(2,6-difluoro-4-methylphenoxy)-2-(4-(4-methyl-1H-imidazol-1-yl)benzyl)-1,2-dihydro-3H-pyrrolo[3,4-c]pyridin-3-one]",14 nM,106%,
"Cc1nn(C)cc1-c1ccc(CN2Cc3ccnc(OCc4ccccc4F)c3C2=O)c(F)c1 [Example 343, 2-(4-(1,3-dimethyl-1H-pyrazol-4-yl)-2-fluorobenzyl)-4-((2-fluorobenzyl)oxy)-1,2-dihydro-3H-pyrrolo[3,4-c]pyridin-3-one]",29 nM,94%,
"Cn1ccc(-c2ccc(CN3Cc4ncnc(Oc5ccc(C(F)(F)F)cc5F)c4C3=O)cc2)n1 [Example 314, 4-(2-fluoro-4-(trifluoromethyl)phenoxy)-6-(4-(1-methyl-1H-pyrazol-3-yl)benzyl)-6,7-dihydro-5H-pyrrolo[3,4-d]pyrimidin-5-one]",11 nM,89%,
"Cn1cc(-c2ccc(CN3Cc4nccc(OCC5CCCO5)c4C3=O)cc2)cn1 (stereo not shown) [Example 59, 6-(4-(1-methyl-1H-pyrazol-4-yl)benzyl)-4-((tetrahydrofuran-2-yl)methoxy)-6,7-dihydro-5H-pyrrolo[3,4-b]pyridin-5-one]",57 nM,136%,
"Cc1cc(-c2ccc(CN3Cc4ccnc(O[C@@H]5CCC[C@H]5O)c4C3=O)cc2)ccn1 (single isomer, unassigned) [Example 259, 4-((trans-2-hydroxycyclopentyl)oxy)-2-(4-(2-methylpyridin-4-yl)benzyl)-1,2-dihydro-3H-pyrrolo[3,4-c]pyridin-3-one hydrochloride]",85 nM,,109%
"Cn1cc(-c2ccc(CN3Cc4cccc(OC[C@H]5CCCO5)c4C3=O)cc2)cn1 [Example 13, 2-(4-(1-methyl-1H-pyrazol-4-yl)benzyl)-7-((2R)-(tetrahydrofuran-2-yl)methoxy)isoindolin-1-one]",43 nM,102%,
"Cn1ccc(-c2ccc(CN3Cc4ccnc(OCC5CCCO5)c4C3=O)c(F)c2)n1 (stereo not shown) [Example 230, 2-(2-fluoro-4-(1-methyl-1H-pyrazol-3-yl)benzyl)-4-((tetrahydrofuran-2-yl)methoxy)-1,2-dihydro-3H-pyrrolo[3,4-c]pyridin-3-one]",10 nM,113%,
"Cc1cc(-c2ccc(CN3Cc4ccnc(Oc5c(F)cc(F)cc5C5CC5)c4C3=O)cc2)cnn1 [Example 361, 4-(2-cyclopropyl-4,6-difluorophenoxy)-2-(4-(6-methylpyridazin-4-yl)benzyl)-1,2-dihydro-3H-pyrrolo[3,4-c]pyridin-3-one]",76 nM,100%,
"Cc1cc(-c2ccc(CN3Cc4ccnc(OCC5CC5)c4C3=O)cc2)ccn1 [Example 339, 4-(cyclopropylmethoxy)-2-(4-(2-methylpyridin-4-yl)benzyl)-1,2-dihydro-3H-pyrrolo[3,4-c]pyridin-3-one]",70 nM,106%,
"Cn1cc(-c2ccc(CN3Cc4ccnc(Oc5ccc(C(C)(C)O)cc5F)c4C3=O)cc2)cn1 [Example 408, 4-(2-fluoro-4-(2-hydroxypropan-2-yl)phenoxy)-2-(4-(1-methyl-1H-pyrazol-4-yl)benzyl)-1,2-dihydro-3H-pyrrolo[3,4-c]pyridin-3-one]",5.6 nM,99%,
"O=C1c2c(cccc2O[C@H]2CCCC[C@@H]2O)CN1Cc1ccc(-n2cccn2)cc1 (relative stereo) [Example 29, 7-((trans-2-hydroxycyclohexyl)oxy)-2-(4-(1H-pyrazol-1-yl)benzyl)isoindolin-1-one]",7.5 nM,89%,

# From patent US9777005B2 (Takeda Pharmaceutical Company Limited, priority 2012, dated 2017)
